The target of experiment [1] is T1, 5-Lipoxygenase from RBL-1 20,000 xg Supernatant (Rattus norvegicus, UniProt P12527).
T1 construct: supermatant from 1.5 million homogenized RBL-1 cells; endogenous in cells; host or cells: RBL-1 cells, 20,000 x g supernatant of homogenate
T1 sequence (P12527 1-673): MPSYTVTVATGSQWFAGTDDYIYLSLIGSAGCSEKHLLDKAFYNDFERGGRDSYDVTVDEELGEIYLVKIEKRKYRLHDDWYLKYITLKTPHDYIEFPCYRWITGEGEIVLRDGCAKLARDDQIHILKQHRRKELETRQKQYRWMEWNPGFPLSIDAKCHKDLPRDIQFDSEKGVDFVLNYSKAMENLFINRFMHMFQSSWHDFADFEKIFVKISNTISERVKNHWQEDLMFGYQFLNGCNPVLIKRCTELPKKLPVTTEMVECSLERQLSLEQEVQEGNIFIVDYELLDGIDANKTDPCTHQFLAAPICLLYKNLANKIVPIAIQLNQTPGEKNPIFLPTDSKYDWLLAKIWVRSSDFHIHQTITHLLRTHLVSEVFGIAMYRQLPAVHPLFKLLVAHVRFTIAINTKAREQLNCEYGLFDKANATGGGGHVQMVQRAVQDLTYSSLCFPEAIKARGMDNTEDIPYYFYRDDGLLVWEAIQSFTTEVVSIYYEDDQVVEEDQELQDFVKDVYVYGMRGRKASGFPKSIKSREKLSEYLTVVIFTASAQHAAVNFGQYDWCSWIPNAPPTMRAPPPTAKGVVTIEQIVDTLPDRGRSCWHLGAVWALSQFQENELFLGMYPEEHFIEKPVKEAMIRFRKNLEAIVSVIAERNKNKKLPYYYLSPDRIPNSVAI
Put plainly: In vitro inhibition of 5-lipoxygenase from RBL-1 20,000 xg supernatant. The experiment is classed as biochemical. Conditions: radiolabeled arachidonic acid. Here is the method: Assays to determine 5-lipoxygenase inhibitory activity were performed in […] incubations containing the 20,000xg supermatant from 1.5 million homogenized RBL-1 cells and various concentrations of the test compound. Reactions were initiated by addition of radiolabeled arachidonic acid and terminated by acidification and ether extraction. Reaction products were separated from nonconverted substrate by thin layer chromatography and measured by liquid scintillation spectroscopy. All incubations are performed in triplicate. Inhibition of 5-lipoxygenase activity was calculated as the ratio of the amount of product formed in the presence and absence of inhibitor. […] (Dyer, R.D.; Haviv, F.; Hanel, A. M.; Bornemier, D. A.; Carter, G. W. Fed. Proc., Fed. Am. Soc. Exp. Biol. 1984, 43, 1462A).

For experiment [2], the system named is leukotriene biosynthesis. Put plainly: In vivo inhibition of leukotriene biosynthesis, rat peritoneal anaphylaxis model. The settings on record: 1 h, 200 μmol/kg oral dose, gavage one hour prior to antigen challenge, read-out: Percent Inhibition. Here is the method: Inhibition of the biosynthesis of leukotrienes in vivo after oral administration of compound was determined using a rat peritoneal anaphylaxis model in a similar manner as that described by Young and coworkers (Young, P. R.; Dyer, R. D.; Carter, G. W. Fed. Proc., Fed. Am. Soc. Exp. Biol. 1985, 44, 1185). In this model rats were injected intraperitoneally (ip) with rabbit antibody to bovine serum albumin (BSA) and three hours later injected ip with BSA to induce an antgen-antibody response. Rats were sacrificed 15 minutes after this challenge and the peritoneal fluids were collected and analyzed for leukotriene levels. Test compounds were administered by gavage one hour prior to the antigen challenge. Percent inhibition values were determined by comparing the treatment group to the mean of the control group.

For experiment [3], the system named is 5-lipoxygenase. The settings on record: cited from earlier work.

Turning to `CC(c1ccc(OCc2ccccc2)cc1)N(O)C(N)=O` (stereo not drawn) [Example 1, N-hydroxy-N-(1(4-phenylmethoxyphenyl)ethyl)urea], in experiment [1], the IC50 (as a rule, the concentration that gives 50% inhibition) is 430 nM. For the same compound, the inhibition in vivo at 200 µmol/kg in experiment [2] turned out to be 58%. On the same counts, the results for `CC(c1ccc(OCc2ccccc2)cc1)N(O)C(=O)NO` (stereo not drawn) [Example 4] are 500 nM and 63%.

On to `NC(=O)N(O)Cc1ccc(OCc2ccccc2)cc1` [Example 5, N-hydroxy-N-(4-phenylmethoxyphenylmethyl) urea], for which, in experiment [1], half-maximal inhibition (IC50) required 610 nM. In addition, the inhibition in vivo at 200 µmol/kg in experiment [2] worked out at 74%. On the same counts, the results for `COc1cc(C(C)N(O)C(N)=O)cc(OC)c1OCc1ccccc1` (stereo not drawn) [Example 7, N-hydroxy-N-(1-(4-phenylmethoxy-3,5-dimethoxyphenyl)ethyl) urea] are 1400 nM and 88%.

On to `CC(c1ccc2ccccc2c1)N(O)C(N)=O` (stereo not drawn) [Example 9, N-hydroxy-N-(1-(2-naphthyl)ethyl) urea], for which the inhibition in vivo at 200 µmol/kg in experiment [2] amounted to 69%. In the case of `Cc1ccc(C(C)N(O)C(N)=O)s1` (stereo not drawn) [Example 12, N-Hydroxy-N-1-(5-methylthien-2-yl)ethyl urea], 530 nM corresponded to half-maximal inhibition in experiment [1] (IC50). Moreover, the inhibition in vivo at 200 µmol/kg in experiment [2] worked out at 94%. On the same counts, the results for `Cc1cc(C(C)N(O)C(N)=O)c(C)s1` (stereo not drawn) [Example 42, N-Hydroxy-N-1-(2,5-dimethylthien-3-yl)ethyl urea] are 1500 nM and 64%. For `CC(c1ccsc1)N(O)C(N)=O` (stereo not drawn) [Example 43, N-Hydroxy-N-1-(thien-3-yl)ethyl urea] the same measures were 3500 nM and 66%. `NC(=O)N(O)Cc1ccsc1` [Example 44, N-Hydroxy-N-(thien-3-yl)methyl urea] displayed a half-inhibitory concentration (IC50) in experiment [1] of 4900 nM. Further, the inhibition in vivo at 200 µmol/kg in experiment [2] was determined as 87%.

Compound `NC(=O)N(O)Cc1cccs1` [Example 45, N-hydroxy-N-(thien-2-yl)methyl urea] displayed an IC50 in experiment [1] of 6800 nM. Further, in experiment [2], the inhibition in vivo at 200 µmol/kg turned out to be 97%. On the same counts, the results for `CC(c1cccs1)N(O)C(N)=O` (stereo not drawn) [Example 47, N-hydroxy-N-(1-thien-2-yl)ethyl urea] are 3700 nM and 94%. `Cc1ccsc1CN(O)C(N)=O` [Example 49, N-hydroxy-N-(3-methylthien-2-yl)methyl urea]: the inhibition in vivo at 200 µmol/kg in experiment [2] came out at 94%.

For `CNC(=O)N(O)Cc1cccs1` [Example 50, N-hydroxy-N-(thien-2-yl)methyl-N'-methyl urea], the IC50 in experiment [1] was 6700 nM. In addition, the inhibition in vivo at 200 µmol/kg in experiment [2] worked out at 90%.

On to `Cc1ccc(CN(O)C(N)=O)s1` [Example 51, N-hydroxy-N-(5-methylthien-2-yl)methyl urea], for which, in experiment [1], 200 nM corresponded to half-maximal inhibition (IC50). Also, the inhibition in vivo at 200 µmol/kg in experiment [2] was 94%. For `NC(=O)N(O)Cc1ccc(-c2ccccn2)s1` [Example 55, N-hydroxy-N-(1-(5-(pyrid-2-yl)thien-2-yl)methyl) urea] the same measures were 2100 nM and 71%. On the same counts, the results for `CC(c1ccc(-c2ccccc2)s1)N(O)C(N)=O` (stereo not drawn) [Example 56, N-hydroxy-N-(1-(5-phenylthien-2-yl)ethyl)urea] are 400 nM and 89%. As to `NC(=O)N(O)CC=Cc1ccsc1` [Example 68, N-hydroxy-N-(3-(1-thien-3-yl)propenyl) urea], the half-inhibitory concentration (IC50) in experiment [1] was 1900 nM. Also, the inhibition in vivo at 200 µmol/kg in experiment [2] is 93%. On the same counts, the results for `CC(c1ccc(Br)cc1)N(O)C(N)=O` (stereo not drawn) [Example 97, N-Hydroxy-N-1-(4-bromophenyl)ethylurea] are 200 nM and 94%. For `CC(c1ccc(Br)cc1)N(O)C(=O)NCCO` (stereo not drawn) [Example 99, N-Hydroxy-N-1-(4-bromophenyl)ethyl-N'-(2-hydroxyethyl)-urea] the same measures were 300 nM and 84%. For `NC(=O)N(O)Cc1ccc(Br)cc1` [Example 100, N-Hydroxy-N-4-bromobenzylurea] the same measures were 800 nM and 95%. For the compound `CNC(=O)N(O)Cc1ccc(Br)cc1` [Example 101, N-Hydroxy-N-4-bromobenzyl-N'-methyl urea], half-maximal inhibition in experiment [1] (IC50) was put at 300 nM. Moreover, the inhibition in vivo at 200 µmol/kg in experiment [2] worked out at 93%. On to `CCC(c1ccc(Br)cc1)N(O)C(N)=O` (stereo not drawn) [Example 102, N-Hydroxy-N-(1-(4-bromophenyl)propyl) urea], for which, in experiment [2], the inhibition in vivo at 200 µmol/kg amounted to 85%. On to `CCC(c1ccc(Br)cc1)N(O)C(=O)NC` (stereo not drawn) [Example 103, N-Hydroxy-N-(1-(4-bromophenyl)propyl)-N'-methylurea], for which the inhibition in vivo at 200 µmol/kg in experiment [2] was determined as 88%.

For `CC(c1ccc(Cl)cc1)N(O)C(N)=O` (stereo not drawn) [Example 107, N-Hydroxy-N-(1-(4-chlorophenyl)ethyl) urea], the concentration for half-maximal inhibition (IC50) in experiment [1] worked out at 600 nM. In addition, in experiment [2], the inhibition in vivo at 200 µmol/kg was 99%. On the same counts, the results for `CC(c1ccc(F)cc1)N(O)C(N)=O` (stereo not drawn) [Example 109, N-Hydroxy-N-(1-(4-fluorophenyl)ethyl) urea] are 1800 nM and 98%. On to `CC(c1ccc(C(F)(F)F)cc1)N(O)C(N)=O` (stereo not drawn) [Example 111, N-Hydroxy-N-(1-(4-trifluoromethylphenyl)ethyl) urea], for which, in experiment [2], the inhibition in vivo at 200 µmol/kg is 97%. Compound `Cc1ccc(C(C)N(O)C(N)=O)cc1` (stereo not drawn) [Example 113, N-Hydroxy-N-(1-(4-methylphenyl)ethyl) urea] showed a concentration for half-maximal inhibition (IC50) in experiment [1] of 300 nM. Also, the inhibition in vivo at 200 µmol/kg in experiment [2] was 94%. As for `CC(c1ccc(-c2ccccc2)cc1)N(O)C(N)=O` (stereo not drawn) [Example 120, N-Hydroxy-N-(1-(4-biphenyl)ethyl) urea], in experiment [2], the inhibition in vivo at 200 µmol/kg was found to be 77%. In experiment [1], `NC(=O)N(O)Cc1sccc1SCc1ccco1` [Example 146, N-hydroxy-N-[3-(2-furfurylmethylthio)thien-2-yl]methyl urea] yielded an IC50 of 700 nM.

Consider `CC(C)(C)Sc1ccsc1CN(O)C(N)=O` [Example 147, N-hydroxy-N-[3-(tertbutylthio)thien-2-yl]methyl urea], for which inhibition in experiment [1] was half-maximal at 3700 nM (IC50).

Consider `CC(C)(C)Sc1ccc(CN(O)C(N)=O)s1` [Example 148, N-hydroxy-N-[5-(tertbutylthio)thien-2-yl]methyl urea], for which the IC50 in experiment [1] came out at 300 nM.

`CC(c1ccc(SC(C)(C)C)s1)N(O)C(N)=O` (stereo not drawn) [Example 149, N-hydroxy-N-[1-(5-{terbutylthio}thien-2-yl)ethyl]urea] yielded an IC50 in experiment [1] of 800 nM. Compound `CC(C)(C)Sc1ccc(/C=C/CN(O)C(N)=O)s1` [Example 154, N-hydroxy-N-3-[5-(tertbutylthio)thien-2-yl]propenyl urea] returned an IC50 in experiment [1] of 200 nM. This IC50 lies about 4-fold lower than the previous one. The same measure, in the same setting: the value for `NC(=O)N(O)Cc1ccc(Oc2ccccc2)s1` [Example 155, N-hydroxy-N-[5-(phenoxy)thien-2-yl]methyl urea] was 700 nM; that for `NC(=O)N(O)Cc1sccc1Oc1ccccc1` [Example 156, N-hydroxy-N-[3-(phenoxy)thien-2-yl]methyl urea] was 1000 nM. The same measure, in the same setting: the value for `NC(=O)N(O)Cc1cc(Oc2ccccc2)cs1` [Example 157, N-hydroxy-N-[4-(phenoxy)thien-2-yl]methyl urea] was 500 nM; that for `NC(=O)N(O)Cc1cc(Oc2ccc(Cl)cc2)cs1` [Example 158, N-hydroxy-N-[4-(4-chlorophenoxy)thien-2-yl]methyl urea] was 400 nM. As for `O=C(O)c1cc(/N=N/c2ccc(S(=O)(=O)Nc3ccccn3)cc2)ccc1O` [sulfasalazine], the 5-lipoxygenase inhibition entry in experiment [3] was “weak 5-lipoxygenase inhibitor”.

Values taken from patent publication US5185363A, “Urea based lipoxygenase inhibiting compounds” (Abbott Laboratories, priority 1991, dated 1993).
